Experimental data from BindingDB's records for doi:10.1111/cbdd.12863 (Guangzhou Institutes of Biomedicine and Health, Chinese …, 2017).

Experiments:
[1] = target: T1, Discoidin domain-containing receptor 2 (Homo sapiens, UniProt Q16832); assay: LanthaScreen Eu Kinase Activity Assay; conditions: pH 7.5; 25 °C
T1 sequence (Q16832 whole entry): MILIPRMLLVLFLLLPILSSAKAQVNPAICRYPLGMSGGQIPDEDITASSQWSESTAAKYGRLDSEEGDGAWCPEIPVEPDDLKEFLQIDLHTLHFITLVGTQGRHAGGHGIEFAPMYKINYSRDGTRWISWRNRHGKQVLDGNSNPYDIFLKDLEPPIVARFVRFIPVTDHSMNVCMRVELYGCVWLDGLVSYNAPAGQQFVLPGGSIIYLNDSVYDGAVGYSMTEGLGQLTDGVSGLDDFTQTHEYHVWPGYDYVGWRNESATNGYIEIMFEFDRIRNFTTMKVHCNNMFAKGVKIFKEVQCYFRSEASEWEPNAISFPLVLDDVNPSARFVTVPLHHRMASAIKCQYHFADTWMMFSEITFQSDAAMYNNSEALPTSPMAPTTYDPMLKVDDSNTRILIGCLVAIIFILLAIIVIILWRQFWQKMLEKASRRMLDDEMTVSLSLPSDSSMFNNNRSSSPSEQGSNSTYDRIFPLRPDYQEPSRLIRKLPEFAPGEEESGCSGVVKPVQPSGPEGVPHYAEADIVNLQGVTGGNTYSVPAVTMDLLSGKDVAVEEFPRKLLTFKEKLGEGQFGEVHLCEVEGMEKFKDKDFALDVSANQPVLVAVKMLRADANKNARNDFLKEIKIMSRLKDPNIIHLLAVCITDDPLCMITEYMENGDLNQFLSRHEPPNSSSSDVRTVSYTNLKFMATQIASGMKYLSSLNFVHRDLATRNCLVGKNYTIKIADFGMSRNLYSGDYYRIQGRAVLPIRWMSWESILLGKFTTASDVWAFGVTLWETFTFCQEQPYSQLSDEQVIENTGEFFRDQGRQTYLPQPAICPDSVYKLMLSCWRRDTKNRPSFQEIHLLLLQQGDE
Protocol: (§1) The effects of compounds on the kinases DDR1 and DDR2 were assessed by using a LanthaScreen Eu kinase activity assay technology (Invitrogen, Carlsbad, CA, USA). […] Reaction buffer for the kinase reaction consists of 50 mm HEPES pH 7.5, 0.01% BRIJ-35, 10 mm MgCl2, and 1 mm EGTA. The concentration of fluorescein-polyGAT substrate (Invitrogen) in the assay was […] reactions were initiated with the addition of […] in the presence of serial dilutions of compounds. The reactions were allowed to proceed for 1 hour at room temperature before a 10 μL preparation of EDTA (20 mm) and Eu-labeled antibody (4 nm) in TR-FRET dilution buffer was added. The final concentration of antibody in the assay well was 2 nm, and the final concentration of EDTA was 10 mm.

[2] = target: Epithelial discoidin domain-containing receptor 1 (Homo sapiens, UniProt Q08345); assay: LanthaScreen Eu Kinase Activity Assay; conditions: pH 7.5; 25 °C
Protocol: as §1

Sequence of Epithelial discoidin domain-containing receptor 1 (Q08345 whole entry, the tested form may be a part): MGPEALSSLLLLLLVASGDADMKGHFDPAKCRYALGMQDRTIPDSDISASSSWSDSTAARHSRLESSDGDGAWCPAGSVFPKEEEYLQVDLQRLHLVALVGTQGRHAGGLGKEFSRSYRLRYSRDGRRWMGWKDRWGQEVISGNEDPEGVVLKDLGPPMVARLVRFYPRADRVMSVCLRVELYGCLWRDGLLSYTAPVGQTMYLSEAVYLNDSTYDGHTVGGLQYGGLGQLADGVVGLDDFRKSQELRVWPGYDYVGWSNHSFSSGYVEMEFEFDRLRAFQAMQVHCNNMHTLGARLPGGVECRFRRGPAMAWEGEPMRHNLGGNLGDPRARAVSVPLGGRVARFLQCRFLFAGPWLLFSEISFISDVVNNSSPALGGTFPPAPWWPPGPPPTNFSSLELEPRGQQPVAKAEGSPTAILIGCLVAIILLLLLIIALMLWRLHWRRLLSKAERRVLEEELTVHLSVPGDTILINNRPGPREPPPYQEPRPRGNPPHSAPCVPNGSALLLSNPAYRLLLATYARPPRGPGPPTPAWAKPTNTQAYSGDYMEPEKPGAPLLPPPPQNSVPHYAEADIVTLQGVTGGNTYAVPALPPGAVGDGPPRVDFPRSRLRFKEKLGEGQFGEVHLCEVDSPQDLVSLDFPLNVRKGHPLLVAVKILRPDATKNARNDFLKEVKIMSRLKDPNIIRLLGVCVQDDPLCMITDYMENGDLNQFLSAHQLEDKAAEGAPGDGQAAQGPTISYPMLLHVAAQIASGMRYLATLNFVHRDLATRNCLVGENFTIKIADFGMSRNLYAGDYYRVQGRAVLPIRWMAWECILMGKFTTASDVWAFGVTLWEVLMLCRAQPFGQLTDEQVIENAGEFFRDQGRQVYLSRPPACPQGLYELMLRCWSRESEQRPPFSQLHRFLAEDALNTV

For `CCC(=O)N1CCC(Nc2cc(Nc3ncc(C(=O)Nc4c(C)cccc4Cl)s3)nc(C)n2)C1` (configuration not stated) [N-(2-chloro-6-methylphenyl)-2-((2-methyl-6-((1-propionylpyrrolidin-3-yl)amino)pyrimidin-4-yl)amino)thiazole-5-carboxamide (5l)], the IC50 [1] was 23.9 nM and the IC50 [2] was 17.9 nM.
